Data on one compound can be found in patent publication US10954538B2, “Enzymatic cyclization of homofarnesylic acid” (BASF SE, priority 2016, dated 2021).

This test relates to Zm-SHC-1 (squalene-hopene cyclase, SEQ ID NO: 2). In words: Activity determination of the recombinant cyclase from E. coli LU15568 (conversion of homofarnesylic acid into sclareolide, GC). The format is biochemical, Zymomonas mobilis. The settings on record: E. coli LU15568 homogenate, pH 5.0, 37° C., 24 h, GC analysis. On the procedure:
Inoculated from a suitable 2 ml preculture, E. coli LU15568 was grown for 16 h at 37° C. in 20 ml LB-Amp/Spec/Cm ([…]), 0.1 mM IPTG, 0.5 g/l rhamnose in 100 ml Erlenmeyer flasks (with baffles), centrifuged at 5000*g/10 min and stored at 4° C. Protein extract was prepared by suspending the cell pellet in 15 ml disruption buffer (0.2 M Tris/HCl, 0.5 M EDTA, pH 8.0), 375 U benzonase (for example Novagen, 25 U/μL), 40 μL PMSF (100 mM, dissolved in i-PropOH), 0.8 g sucrose and approx. 0.5 mg of lysozyme. The reaction mixture was mixed and incubated on ice for 30 min. Thereafter, the mixture was frozen at −20° C.
After the reaction mixture had defrosted, it was made up to approx. 40 ml with distilled water and again incubated on ice for 30 min. […]
The conversion of homofarnesylic acid (1b) into sclareolide (3) can be determined with the following GC system:
• 0 min: 100° C. • 5° C./min to 200° C. • After 5 min: 30° C./min to 320° C. • thereafter constant • Duration of the method: 30 min Injector temperature: 280° C. Retention times (RT): • Homofarnesylic acid: peak 1 at 11.7 min, peak 2 at 12.1 min; • Sclareolide: approx. 13.5 min A calibration series, with the aid of which the concentration of unknown samples was determined, is established using authentic material (Sigma, catalog No.: 358002).

On to `CC(C)=CCC/C(C)=C/CC/C(C)=C/CC(=O)O` [Homofarnesylic acid, (3E,7E)-4,8,12-trimethyltrideca-3,7,11-trienoic acid], for which, where the note is “20 mM homofarnesylic acid (E,E 74.93%)”, the “conversion rate from the E,E isomer” value came to 82.7%. In addition, for the setting “20 mM homofarnesylic acid, sodium citrate buffer”, the “conversion rate in total” value is given as 74.5%.
